According to patent publication US8987249B2, “Substituted 2-Aza-bicyclo[2.2.1]heptane-3-carboxylic acid (benzyl-cyano-methyl)-amides inhibitors of Cathepsin C” (Boehringer Ingelheim International GmbH, priority 2013, dated 2015):

Key:
[1] = biological target: recombinant human Cathepsin K (Homo sapiens (Human), UniProt P43235); assay: Inhibition of human Cathepsin K; format: biochemical; conditions: substrate Z-Gly-Pro-Arg-AMC
Procedure, shortened: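 Proenzyme activated in pH 3.5 sodium acetate for 30 min at room temperature. Enzyme (2 ng/μL final) preincubated 10 min with compound (0.1 nM–100 μM, 1% DMSO) in pH 5.5 acetate/EDTA/L-cysteine buffer, then reacted 60 min at room temperature with Z-Gly-Pro-Arg-AMC. Stopped with 1 μM E64; fluorescence Ex 360/Em 460 nm; IC50 from background-subtracted percent of vehicle control.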

[2] = biological target: recombinant human DPPI (Cathepsin C) (Homo sapiens (Human), UniProt P53634); assay: Inhibition of human DPPI (Cathepsin C); format: biochemical; conditions: substrate Gly-Arg-AMC
Procedure, shortened: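 Recombinant human DPPI in MES buffer pH 6.0 (5 mM DTT, 0.1% BSA); fluorogenic substrate at 50 μM final, 30 min at room temperature, stopped with 1 μM Gly-Phe-DMK. Background-subtracted fluorescence expressed as percent of vehicle control; IC50 derived.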

[3] = Determination of metabolic stability with human liver microsomes; conditions: pooled human liver microsomes; for half-life at 1 μM: human, pH 7.6; for In vitro stability in human liver microsome incubations t½: 1 μM test compound, 37° C., NADPH
Experimental: Determination of Metabolic Stability with Human Liver Microsomes
The metabolic degradation of the test compound is assayed at 37° C. with pooled human liver microsomes. The final incubation volume of 100 μl per time point contains TRIS buffer pH 7.6 (0.1 M), magnesium chloride (5 mM), microsomal protein (1 mg/ml) and the test compound at a final concentration of 1 μM. Following a short preincubation period at 37° C., the reactions are initiated by addition of beta-nicotinamide adenine dinucleotide phosphate, reduced form (NADPH, 1 mM) and terminated by transferring an aliquot into acetonitrile after different time points. Additionally, the NADPH-independent degradation is monitored in incubations without NADPH, terminated at the last time point. The [%] remaining test compound after NADPH independent incubation is reflected by the parameter c (control) (metabolic stability). The quenched incubations are pelleted by centrifugation (10,000 g, 5 min). An aliquot of the supernatant is assayed by LC-MS/MS for the amount of parent compound.
The half-life (t½ INVITRO) is determined by the slope of the semilogarithmic plot of the concentration-time profile.

recombinant human Cathepsin K, sequence (P43235 115-329): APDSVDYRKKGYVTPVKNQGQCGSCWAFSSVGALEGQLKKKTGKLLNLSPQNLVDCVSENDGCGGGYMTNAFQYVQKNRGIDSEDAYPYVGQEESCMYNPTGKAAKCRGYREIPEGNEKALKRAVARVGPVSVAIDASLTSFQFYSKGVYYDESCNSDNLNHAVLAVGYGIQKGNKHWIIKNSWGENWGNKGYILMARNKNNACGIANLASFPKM
recombinant human DPPI (Cathepsin C), sequence (P53634 231-394): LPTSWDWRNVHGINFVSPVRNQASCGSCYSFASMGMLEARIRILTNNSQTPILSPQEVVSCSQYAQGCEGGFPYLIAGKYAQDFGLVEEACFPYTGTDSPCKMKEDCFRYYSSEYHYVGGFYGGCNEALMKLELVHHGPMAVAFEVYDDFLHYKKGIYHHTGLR
recombinant human DPPI (Cathepsin C), sequence (P53634 395-463): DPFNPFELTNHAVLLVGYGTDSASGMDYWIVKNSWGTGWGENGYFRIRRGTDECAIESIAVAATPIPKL
recombinant human DPPI (Cathepsin C), sequence (P53634 25-134): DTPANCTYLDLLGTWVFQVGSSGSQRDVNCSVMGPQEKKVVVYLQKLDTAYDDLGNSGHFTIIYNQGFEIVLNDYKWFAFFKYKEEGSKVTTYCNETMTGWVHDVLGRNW

IC50 [1]	IC50 [2]	half-life at 1 μM [3]	In vitro stability in human liver microsome incubations t½ [3]	SMILES
4400 nM	4.6 nM	> 2.17 h	–	N#Cc1ccc(-c2ccc(CC(C#N)NC(=O)[C@H]3N[C@@H]4CC[C@H]3C4)c(F)c2)cc1F (stereo partly drawn) [Example 35]
13300 nM	3.7 nM	1.83 h	–	CN1C(=O)Cc2ccc(-c3ccc(C[C@@H](C#N)NC(=O)[C@H]4N[C@@H]5CC[C@H]4C5)c(F)c3F)cc21 [Example 24]
3200 nM	2 nM	–	2.17 h	CN1C(=O)Cc2ccc(-c3ccc(CC(C#N)NC(=O)[C@H]4N[C@@H]5CC[C@H]4C5)c(F)c3)cc21 (stereo partly drawn) [Example 15]
2000 nM	3.7 nM	1.53 h	–	N#C[C@H](Cc1ccc(-c2cccc(C(N)=O)c2)cc1F)NC(=O)[C@H]1N[C@@H]2CC[C@H]1C2 [Example 244]
2700 nM	2 nM	> 2.17 h	–	CS(=O)(=O)c1cc(-c2ccc(C[C@@H](C#N)NC(=O)[C@H]3N[C@@H]4CC[C@H]3C4)c(F)c2)ccc1C#N [Example 14]
2700 nM	1.5 nM	> 2.17 h	–	CN1C(=O)C(=O)c2ccc(-c3ccc(C[C@@H](C#N)NC(=O)[C@H]4N[C@@H]5CC[C@H]4C5)c(F)c3)cc21 [Example 10]
2900 nM	5.3 nM	> 2.17 h	–	CN1CCc2cc(-c3ccc(C[C@@H](C#N)NC(=O)[C@H]4N[C@@H]5CC[C@H]4C5)c(F)c3)ccc2C1=O [Example 42]
3900 nM	9.1 nM	> 2.17 h	–	CS(=O)(=O)Nc1ccc(-c2ccc(CC(C#N)NC(=O)[C@H]3N[C@@H]4CC[C@H]3C4)c(F)c2)cc1 (stereo partly drawn) [Example 62]
5300 nM	4.5 nM	> 2.17 h	–	N#C[C@H](Cc1ccc(-c2ccc(=O)n(CC(F)F)c2)cc1F)NC(=O)[C@H]1N[C@@H]2CC[C@H]1C2 [Example 343]
5500 nM	19.8 nM	1.37 h	–	N#C[C@H](Cc1ccc(-c2cc(-c3ccccc3)no2)cc1F)NC(=O)[C@H]1N[C@@H]2CC[C@H]1C2 [Example 96]
4500 nM	8.2 nM	> 2.17 h	–	CS(=O)(=O)c1ccc(-c2ccc(CC(C#N)NC(=O)[C@H]3N[C@@H]4CC[C@H]3C4)c(F)c2)cc1 (stereo partly drawn) [Example 54]
3500 nM	6.5 nM	> 2.08 h	–	C[S+]([O-])c1ccc(-c2ccc(C[C@@H](C#N)NC(=O)[C@H]3N[C@@H]4CC[C@H]3C4)c(F)c2)cc1 (stereo partly drawn) [Example 274]
1700 nM	9 nM	> 2.17 h	–	CN1CCN(C(=O)c2ccc(-c3ccc(C[C@@H](C#N)NC(=O)[C@H]4N[C@@H]5CC[C@H]4C5)c(F)c3)cc2)CC1 [Example 185]
7800 nM	0.6 nM	1.58 h	–	CC1(C)OC(=O)c2ccc(-c3ccc(C[C@@H](C#N)NC(=O)[C@H]4N[C@@H]5CC[C@H]4C5)c(F)c3)cc21 [Example 156]
9400 nM	1.5 nM	> 2.17 h	–	COCCN1C(=O)Cc2ccc(-c3ccc(C[C@@H](C#N)NC(=O)[C@H]4N[C@@H]5CC[C@H]4C5)c(F)c3)cc21 [Example 158]
6800 nM	36.7 nM	> 2.17 h	–	N#C[C@H](Cc1ccc(-c2cc[nH]n2)cc1F)NC(=O)[C@H]1N[C@@H]2CC[C@H]1C2 [Example 114]
3000 nM	2.2 nM	> 2.17 h	–	CN1CCN(C(=O)c2cc(-c3ccc(C[C@@H](C#N)NC(=O)[C@H]4N[C@@H]5CC[C@H]4C5)c(F)c3)cs2)CC1=O [Example 233]
2100 nM	0.7 nM	0.95 h	–	N#C[C@H](Cc1ccc(-c2ccc3c(c2)COC3=O)cc1F)NC(=O)[C@H]1N[C@@H]2CC[C@H]1C2 [Example 3, (1S,2S,4R)—N-[(1S)-1-cyano-2-[2-fluoro-4-(1-oxo-3H-isobenzofuran-5-yl)phenyl]ethyl]-3-azabicyclo[2.2.1]heptane-2-carboxamide]
7300 nM	4.3 nM	1.5 h	–	CN1C(=O)Cc2ccc(-c3cc(F)c(C[C@@H](C#N)NC(=O)[C@H]4N[C@@H]5CC[C@H]4C5)cc3F)cc21 [Example 31]
9700 nM	8.6 nM	> 2.17 h	–	N#C[C@H](Cc1ccc(-c2ccc3c(c2)NC(=O)C3)c(F)c1F)NC(=O)[C@H]1N[C@@H]2CC[C@H]1C2 [Example 181]
2800 nM	2 nM	> 2.08 h	–	CN1C(=O)Cc2ccc(-c3ccc(C[C@@H](C#N)NC(=O)[C@H]4N[C@@H]5CC[C@H]4C5)c(F)c3)cc21 [Example 2, (1S,2S,4R)—N-[(1S)-1-cyano-2-[2-fluoro-4-(1-methyl-2-oxo-indolin-6-yl)phenyl]ethyl]-3-azabicyclo[2.2.1]heptane-2-carboxamide]
4800 nM	10.8 nM	> 2 h	–	CCS(=O)(=O)c1ccc(-c2ccc(CC(C#N)NC(=O)[C@H]3N[C@@H]4CC[C@H]3C4)c(F)c2)cc1 (stereo partly drawn) [Example 71]

The next lines start with the compound.

SMILES	IC50 [1]	IC50 [2]	half-life at 1 μM [3]	In vitro stability in human liver microsome incubations t½ [3]
N#C[C@H](Cc1ccc(-n2cc(-c3ccc4[nH]ccc4c3)nn2)cc1F)NC(=O)[C@H]1N[C@@H]2CC[C@H]1C2 [Example 5, (1S,2S,4R)—N-[(1S)-1-cyano-2-[2-fluoro-4-[4-(1H-indol-5-yl)triazol-1-yl]phenyl]ethyl]-3-azabicyclo[2.2.1]heptane-2-carboxamide]	2600 nM	4 nM	1.53 h	–
N#C[C@H](Cc1ccc(-c2cnn(C[C@@H]3CCOC3)c2)cc1F)NC(=O)[C@H]1N[C@@H]2CC[C@H]1C2 [Example 262]	2800 nM	6.4 nM	> 2 h	–
CN(C)CC1CCCN(c2ccc(C[C@@H](C#N)NC(=O)[C@H]3N[C@@H]4CC[C@H]3C4)c(F)c2)C1 (stereo partly drawn) [Example 345]	9200 nM	18.4 nM	> 2.17 h	–
N#C[C@H](Cc1ccc(C2=CCN3CCOCC3C2)cc1F)NC(=O)[C@H]1N[C@@H]2CC[C@H]1C2 (stereo partly drawn) [Example 281]	1900 nM	3.3 nM	> 2.17 h	–
N#Cc1ccc(-c2ccc(C[C@@H](C#N)NC(=O)[C@H]3N[C@H]4C[C@@H]3[C@@H]3C[C@@H]34)c(F)c2)s1 [Example 40]	7800 nM	5.1 nM	> 2.17 h	–
N#C[C@H](Cc1ccc(-c2cnn(CC3CCOCC3)c2)c(F)c1F)NC(=O)[C@H]1N[C@@H]2CC[C@H]1C2 [Example 218]	26000 nM	18.9 nM	> 2.17 h	–
CC(C)C(O)Cc1cn(-c2ccc(C[C@@H](C#N)NC(=O)[C@H]3N[C@@H]4CC[C@H]3C4)c(F)c2)nn1 (stereo partly drawn) [Example 109]	4500 nM	26.9 nM	> 2.17 h	–
N#C[C@H](Cc1ccc(N2CC3CCN(C4CCOC4)C3C2)cc1F)NC(=O)[C@H]1N[C@@H]2CC[C@H]1C2 (stereo partly drawn) [Example 348]	4300 nM	17.6 nM	–	2.17 h
CN1CCC(Oc2ccc(C[C@@H](C#N)NC(=O)[C@H]3N[C@@H]4CC[C@H]3C4)c(F)c2)CC1 [Example 319, (1S,2S,4R)—N-[(1S)-1-cyano-2-[2-fluoro-4-[(1-methyl-4-piperidyl)oxy]phenyl]ethyl]-3-azabicyclo[2.2.1]heptane-2-carboxamide]	4500 nM	17.5 nM	> 2.17 h	–
N#CC(Cc1ccc2c(c1)c(=O)[nH]c1c(F)c(F)c(F)cc12)NC(=O)[C@H]1N[C@@H]2CC[C@H]1C2 (stereo partly drawn) [Example 296]	> 30000 nM	2.9 nM	> 2.17 h	–
N#C[C@H](Cc1ccc(N2CCN(CC3CCCO3)CC2)cc1F)NC(=O)[C@H]1N[C@@H]2CC[C@H]1C2 (stereo partly drawn) [Example 154]	4600 nM	13.5 nM	> 2.17 h	–
N#C[C@H](Cc1ccc(-c2cnn(C[C@H]3CCCO3)c2)cc1F)NC(=O)[C@H]1N[C@@H]2CC[C@H]1C2 [Example 260]	3900 nM	3.5 nM	> 2.17 h	–
N#C[C@H](Cc1ccc(-c2ccc(C(F)(F)F)s2)cc1F)NC(=O)[C@H]1N[C@@H]2CC[C@H]1C2 [Example 33]	4800 nM	4.5 nM	> 2.17 h	–
CN1CCC2CN(c3ccc(C[C@@H](C#N)NC(=O)[C@H]4N[C@@H]5CC[C@H]4C5)c(F)c3)CC21 (stereo partly drawn) [Example 349]	5000 nM	20.6 nM	> 2.17 h	–
CC(C)N1CCCN(c2ccc(C[C@@H](C#N)NC(=O)[C@H]3N[C@@H]4CC[C@H]3C4)c(F)c2)CC1 [Example 267]	4700 nM	10.5 nM	> 2.17 h	–
CCC(O)Cc1cn(-c2ccc(C[C@@H](C#N)NC(=O)[C@H]3N[C@@H]4CC[C@H]3C4)c(F)c2)nn1 (stereo partly drawn) [Example 89]	5400 nM	15.6 nM	> 2.17 h	–
N#C[C@H](Cc1ccc(N2CCN3CCOC[C@H]3C2)cc1F)NC(=O)[C@H]1N[C@@H]2CC[C@H]1C2 [Example 250]	3100 nM	4.2 nM	> 2.17 h	–
COCCN1CCN(c2ccc(C[C@@H](C#N)NC(=O)[C@H]3N[C@@H]4CC[C@H]3C4)c(F)c2)CC1 [Example 182]	3500 nM	8.8 nM	> 2.17 h	–
CS(=O)(=O)c1ccc(-c2ccc(C[C@@H](C#N)NC(=O)[C@H]3N[C@@H]4CC[C@H]3C4)c(F)c2F)cc1 [Example 176]	13900 nM	6.6 nM	> 2.17 h	–
